Key:
[1] = Rat pharmacokinetic study, IV single bolus; details: for Vd / half-life / clearance: male, Sprague-Dawley, in vivo, iv
[2] = tested on: efflux transporters (eg, P‐gp, BCRP, MRPs); assay: Classification as efflux transporter substrate; details: for Efflux transporter substrate: Yes/No; for Class (based on membrane permeability and ER value): parental MDCK, MDR1‐MDCK, and Caco‐2 cell lines
Caco‐2 cell line = assay: Bidirectional permeability and efflux ratio in Caco‐2 cells; format: in vitro ADME, human; details: for Efflux ratio: P app(B–A)/P app(A–B)
human P‐gp (MDR1‐MDCK) = human P‐gp (MDR1‐MDCK) (Homo sapiens, UniProt P08183); assay: Bidirectional permeability and efflux ratio in MDR1‐MDCK cells; format: in vitro ADME; details: MDR1‐MDCK cell line; for Efflux ratio: P app(B–A)/P app(A–B)
[3] = Rat brain and blood microdialysis at steady state; details: rat; for concentration at 6 h: male, Sprague-Dawley, in vivo, iv, C m,brain
[4] = Bidirectional permeability in parental MDCK cells; format: in vitro ADME, Canine; details: dog, MDCK
[5] = Rat microdialysis at additional two brain positions; format: in vivo; details: steady state, n = 3, mean ± SD
[6] = Bidirectional permeability and efflux ratio in Caco‐2 cells; format: in vitro ADME, human; details: human; for Papp A→B at 2 h, 5 μmol/L / Papp B→A at 2 h, 5 μmol/L: Caco-2
human P-gp (MDR1) = human P-gp (MDR1) (Homo sapiens, UniProt P08183); assay: Bidirectional permeability and efflux ratio in MDR1‐MDCK cells; format: in vitro ADME; details: human; for Papp A→B at 2 h, 1 μmol/L / Papp B→A at 2 h, 1 μmol/L: MDCK-MDR1; for efflux ratio at 2 h, 1 μmol/L: MDCK-MDR1, Efflux ratio, MDR1‐MDCK cell line, P app(B–A)/P app(A–B)
[7] = cited from earlier work
[8] = IV single bolus, n = 3, mean ± SD
[9] = Caco‐2 cell line, 5 μmol/L, 2 hours, n = 4
[10] = steady‐state unbound concentration in brain (right striatum), microdialysis, IV infusion, mean ± SD

human P‐gp (MDR1‐MDCK), sequence (P08183 whole entry): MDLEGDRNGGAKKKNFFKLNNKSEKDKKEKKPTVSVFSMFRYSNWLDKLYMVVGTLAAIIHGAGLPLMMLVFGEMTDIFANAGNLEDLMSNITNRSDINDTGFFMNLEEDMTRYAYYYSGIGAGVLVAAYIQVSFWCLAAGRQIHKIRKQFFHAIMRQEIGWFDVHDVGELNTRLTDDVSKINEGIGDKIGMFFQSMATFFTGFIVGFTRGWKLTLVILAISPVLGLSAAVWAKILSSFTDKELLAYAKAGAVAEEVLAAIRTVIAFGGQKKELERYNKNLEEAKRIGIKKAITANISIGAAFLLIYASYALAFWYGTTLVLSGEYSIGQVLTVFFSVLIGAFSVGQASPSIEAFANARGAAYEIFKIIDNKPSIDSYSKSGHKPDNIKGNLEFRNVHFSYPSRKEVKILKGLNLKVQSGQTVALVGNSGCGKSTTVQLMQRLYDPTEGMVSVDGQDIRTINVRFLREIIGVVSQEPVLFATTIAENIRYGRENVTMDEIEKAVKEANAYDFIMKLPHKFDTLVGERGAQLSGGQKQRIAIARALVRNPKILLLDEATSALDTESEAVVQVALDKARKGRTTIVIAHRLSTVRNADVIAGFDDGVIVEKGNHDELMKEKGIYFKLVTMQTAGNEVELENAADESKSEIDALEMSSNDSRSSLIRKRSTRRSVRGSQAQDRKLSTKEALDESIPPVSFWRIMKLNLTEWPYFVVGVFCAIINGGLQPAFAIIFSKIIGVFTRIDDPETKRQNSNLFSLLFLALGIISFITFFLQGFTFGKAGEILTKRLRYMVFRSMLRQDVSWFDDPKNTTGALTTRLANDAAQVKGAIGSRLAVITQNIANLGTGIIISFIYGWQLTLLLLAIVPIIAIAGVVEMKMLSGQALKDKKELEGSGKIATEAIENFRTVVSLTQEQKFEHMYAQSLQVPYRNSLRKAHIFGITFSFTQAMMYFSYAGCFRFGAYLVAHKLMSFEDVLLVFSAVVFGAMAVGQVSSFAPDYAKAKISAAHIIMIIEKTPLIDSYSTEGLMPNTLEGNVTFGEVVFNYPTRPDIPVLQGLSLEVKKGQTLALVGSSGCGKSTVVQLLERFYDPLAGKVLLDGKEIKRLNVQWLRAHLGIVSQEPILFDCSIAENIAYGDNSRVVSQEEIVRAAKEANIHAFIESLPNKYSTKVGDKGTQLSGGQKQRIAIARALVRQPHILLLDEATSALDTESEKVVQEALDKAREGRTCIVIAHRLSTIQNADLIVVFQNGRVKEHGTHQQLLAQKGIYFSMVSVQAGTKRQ
human P-gp (MDR1), sequence (P08183 whole entry): as above

| SMILES | Efflux transporter substrate [2] | Class (based on membrane permeability and ER value) [2] | Efflux ratio (Caco‐2 cell line; Caco‐2 cell line) | Efflux ratio (human P‐gp (MDR1‐MDCK)) | Papp A→B at 2 h, 1 μmol/L [4] [×10⁻⁶ cm/s] | Papp B→A at 2 h, 1 μmol/L [4] [×10⁻⁶ cm/s] | Papp at 2 h, 1 μmol/L [4] [×10⁻⁶ cm/s] | Vd [1] [L/kg] | half-life [1] [h] | Papp A→B at 2 h, 5 μmol/L [6] [×10⁻⁶ cm/s] | Papp B→A at 2 h, 5 μmol/L [6] [×10⁻⁶ cm/s] | Papp A→B at 2 h, 1 μmol/L (human P-gp (MDR1)) [×10⁻⁶ cm/s] | Papp B→A at 2 h, 1 μmol/L (human P-gp (MDR1)) [×10⁻⁶ cm/s] | concentration at 6 h [3, 10] [nM] | clearance [1] [mL/min/kg] | efflux ratio at 2 h, 1 μmol/L (human P-gp (MDR1)) | also measured |
| --- | --- | --- | --- | --- | --- | --- | --- | --- | --- | --- | --- | --- | --- | --- | --- | --- | --- |
| Cc1c(N)c(=O)n(-c2ccccc2)n1C [4‐Aminoantipyrine, 4‐aminoantipyrine] | No | Class I | 0.713 | 0.662 | – | – | – | – | – | – | – | – | – | – | – | – | T 1/2 [1, 8]: 0.883 ± 0.025 h; V ss [1, 8]: 0.772 ± 0.018 L/kg; CL ([1]; plasma, IV single bolus, n = 3, mean ± SD): 17.7 ± 0.8 mL/min/kg; P app(A–B) (Caco‐2 cell line; [9]): 36.1 ± 2.5 10^−6 cm/s; P app(B–A) (Caco‐2 cell line; [9]): 25.8 ± 1.5 10^−6 cm/s; Efflux ratio (Caco‐2 cell line; Caco‐2 cell line, listed as 4‐aminoantipyrine): less than 2.0; P app(A–B) (human P‐gp (MDR1‐MDCK); 1 μmol/L, 2 hours, n = 4): 39.1 ± 3.4 10^−6 cm/s; P app(B–A) (human P‐gp (MDR1‐MDCK); 1 μmol/L, 2 hours, n = 4): 25.9 ± 1.7 10^−6 cm/s; Efflux ratio (human P‐gp (MDR1‐MDCK); listed as 4‐aminoantipyrine): less than 2.0; C csf ([3]; concentration in CSF at end of infusion (6 hours), n = 3‐4, mean ± SD): 5.82 ± 0.49 µmol/L; C csf lower than C m,brain by ([3]; steady state): about 25%; C m,blood ([3]; steady‐state unbound concentration in blood, microdialysis, IV infusion, n = 3‐4, mean ± SD): 6.73 ± 0.32 µmol/L; C m,brain [3, 10]: 7.71 ± 0.67 µmol/L |
| CC(=O)Nc1ccc(O)cc1 [Acetaminophen] | – | – | – | – | 16.7 ± 0.6 | 14.2 ± 0.9 | 15.5 ± 1.5 | 2.87 ± 1.44 | 4.96 ± 2.31 | 19.6 ± 2.1 | 19.6 ± 1.9 | 18.5 ± 4.6 | 14.3 ± 0.9 | 3450 ± 820 | – | – | C m,brain ([5]; Frontal cortex): 4.79 ± 0.34 µmol/L; C m,brain ([5]; Hypothalamus): 4.62 ± 0.82 µmol/L |
| Cc1cc(=O)n(-c2ccccc2)n1C [Antipyrine] | No | Class I | – | – | – | – | – | 0.724 ± 0.051 | 1.99 ± 0.43 | 36.2 ± 1.2 | 25.1 ± 0.6 | 38.2 ± 2.1 | 25.8 ± 1.9 | – | 4.81 ± 0.77 | – | C m,brain ([5]; Frontal cortex): 3.66 ± 1.19 µmol/L; C m,brain ([5]; Hypothalamus): 3.81 ± 0.25 µmol/L |
| COc1ccc([C@@H]2Sc3ccccc3N(CCN(C)C)C(=O)[C@@H]2OC(C)=O)cc1 [Diltiazem, diltiazem] | No | Class I | 0.926 | 1.49 | 23.2 ± 2.6 | 13.6 ± 1.3 | 18.4 ± 5.5 | 2.85 ± 0.3 | 0.823 ± 0.325 | 21.7 ± 2.3 | 20.1 ± 2.3 | 12.5 ± 3.1 | 18.7 ± 1.9 | – | 97.7 ± 18.8 | < 2 | Efflux ratio (Caco‐2 cell line; Caco‐2 cell line, listed as diltiazem): less than 2.0; reported mean values of rat plasma CL [7]: 90.3 mL/min/kg |

Continued, in another order:

| Efflux transporter substrate [2] | Class (based on membrane permeability and ER value) [2] | Efflux ratio (Caco‐2 cell line; Caco‐2 cell line) | Efflux ratio (human P‐gp (MDR1‐MDCK)) | Papp A→B at 2 h, 1 μmol/L [4] [×10⁻⁶ cm/s] | Papp B→A at 2 h, 1 μmol/L [4] [×10⁻⁶ cm/s] | Papp at 2 h, 1 μmol/L [4] [×10⁻⁶ cm/s] | Vd [1] [L/kg] | half-life [1] [h] | Papp A→B at 2 h, 5 μmol/L [6] [×10⁻⁶ cm/s] | Papp B→A at 2 h, 5 μmol/L [6] [×10⁻⁶ cm/s] | Papp A→B at 2 h, 1 μmol/L (human P-gp (MDR1)) [×10⁻⁶ cm/s] | Papp B→A at 2 h, 1 μmol/L (human P-gp (MDR1)) [×10⁻⁶ cm/s] | concentration at 6 h [3, 10] [nM] | clearance [1] [mL/min/kg] | efflux ratio at 2 h, 1 μmol/L (human P-gp (MDR1)) | SMILES | also measured |
| --- | --- | --- | --- | --- | --- | --- | --- | --- | --- | --- | --- | --- | --- | --- | --- | --- | --- |
| No | Class I | 0.662 | 0.665 | 34.2 ± 2.6 | – | 27.5 ± 7.5 | 0.745 ± 0.081 | 0.993 ± 0.115 | 33.1 ± 2.3 | 22 ± 1 | 34.3 ± 1.2 | 22.8 ± 0.5 | 1370 ± 170 | 18.1 ± 2.9 | – | NC(=O)N1c2ccccc2C=Cc2ccccc21 [Carbamazepine, carbamazepine] | Efflux ratio (Caco‐2 cell line; Caco‐2 cell line, listed as carbamazepine): less than 2.0; Efflux ratio (human P‐gp (MDR1‐MDCK); listed as carbamazepine): less than 2.0; C csf higher than C m,brain by ([3]; steady state): 25% |
| Yes | Class II | 9.20 | 1.68 | 0.963 ± 0.26 | 2.37 ± 0.16 | 1.67 ± 0.78 | 3.3 ± 1.93 | 5.91 ± 4.71 | 0.706 ± 0.204 | 6.49 ± 1.37 | 1.91 ± 0.93 | 3.22 ± 0.389 | 1420 ± 370 | 53.7 ± 4.8 | < 2 | CN/C(=N/CCSCc1nc[nH]c1C)NC#N [Cimetidine] | Efflux ratio (Caco‐2 cell line; Caco‐2 cell line, listed as cimetidine): greater than 2.0; ER after treatment with novobiocin (Caco‐2 cell line; Caco‐2 cells treated with novobiocin (BCRP inhibitor), supplemental data): 3.29 |
| No | Class I | 1.09 | 1.72 | 19 ± 3.1 | 10.9 ± 2.6 | 15 ± 5.1 | 6.45 ± 0.64 | 1.02 ± 0.05 | 16 ± 1.8 | 17.4 ± 1.4 | 13.8 ± 3.2 | 23.7 ± 0.7 | 954 ± 91 | 95.9 ± 11.2 | < 2 | CN(C)CCCC1(c2ccc(F)cc2)OCc2cc(C#N)ccc21 (centres unmarked) [Citalopram, citalopram] | efflux ratio at 2 h, 5 μmol/L ([6]; Caco-2, Efflux ratio, Caco‐2 cell line, P app(B–A)/P app(A–B)): < 2 |
| – | – | – | – | – | – | – | 0.852 ± 0.159 | 1.35 ± 0.04 | – | – | – | – | 2230 ± 960 | 21.5 ± 1.4 | – | Nc1nc(O)c2ncn(COC(CO)CO)c2n1 [Ganciclovir, ganciclovir] | – |

From publication PMC7138916 (Pharmacology Research & Perspectives, 2020)
